Source: patent US20230059136A1, “THE COMPOUNDS AND COMPOSITIONS FOR TREATING CONDITIONS ASSOCIATED WITH NLRP ACTIVITY” (Novartis AG, priority 2018, published 2023)

Key:
[1] = tested on: IL-1β production in PMA-differentiated THP-1 cells; experiment: IL-1β production in PMA-differentiated THP-1 cells stimulated with gramicidin (hTHP-1 assay containing 2% fetal bovine serum); type: cell-based, human; details: hTHP-1 assay containing 2% fetal bovine serum
How it was run: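 IL-1β release was read by HTRF on supernatants of 50,000 PMA-primed (20 ng/ml, 16-18 h) THP-1 cells/well in 2% FBS medium. Cells saw compound for 1 h (11-point titration from 100 μM, 0.37% DMSO) before a 2 h gramicidin (5 μM) challenge.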

[2] = tested on: IL-1β production in PMA-differentiated THP-1 cells; experiment: hTHP-1 assay containing 10% fetal bovine serum (IL-1β production, gramicidin-stimulated THP-1 cells); type: cell-based, human
Procedure: Activity key: <0.008 μM=“++++++”; ≥0.008 and <0.04 μM=“+++++”; ≥0.04 and <0.2 μM=“++++”; ≥0.2 and <1 μM=“+++”; ≥1 and <5 μM=“++”; ≥5 and <30 μM=“+”. ND=not determined.

[3] = read-out: hTHP-1 IC50 in 2% FBS, average IC50
[4] = read-out: hTHP-1 IC50 in 10% FBS, average IC50
[5] = Homo sapiens, THP-1, read-out: hTHP-1 IC50 in 2% FBS, average IC50
[6] = Homo sapiens, THP-1, read-out: hTHP-1 IC50 in 10% FBS, average IC50

IC50 [1, 3] [nM] | IC50 [2, 4] [nM] | IC50 [1, 5] [nM] | IC50 [2, 6] [nM] | Structure (SMILES) | further results
5000 to 30000 | 1000 to 5000 | – | – | CC(C)c1cc2c(c(C(C)C)c1CC(=O)N=S(N)(=O)c1nn(CCO)cc1F)OC(F)(F)O2 (racemic) [Example 406, (R) and (S)—N-(amino(4-fluoro-1-(2-hydroxyethyl)-1H-pyrazol-3-yl)(oxo)-λ^6-sulfaneylidene)-2-(2,2-difluoro-4,6-diisopropylbenzo[d][1,3]dioxol-5-yl)acetamide] | –
5000 to 30000 | 5000 to 30000 | – | – | CC(C)c1c(CC(=O)N=S(N)(=O)c2sc(C(C)(C)O)cc2F)c2c(c3c1OC(F)(F)O3)CCC2 (racemic) [Example 407, (R) and (S)—N-(amino(3-fluoro-5-(2-hydroxypropan-2-yl)thiophen-2-yl)(oxo)-λ^6-sulfaneylidene)-2-(2,2-difluoro-4-isopropyl-7,8-dihydro-6H-indeno[4,5-d][1,3]dioxol-5-yl)acetamide] | –
200 to 1000 | 200 to 1000 | – | – | CC(C)c1c(CC(=O)N=S(N)(=O)c2sc(C(C)(C)O)cc2F)c2c(c3c1OC(F)(F)O3)CCC2 (racemic) [Example 408, (R) and (S)—N-(amino(3-fluoro-5-(2-hydroxypropan-2-yl)thiophen-2-yl)(oxo)-λ^6-sulfaneylidene)-2-(2,2-difluoro-4-isopropyl-7,8-dihydro-6H-indeno[4,5-d][1,3]dioxol-5-yl)acetamide] | –
– | – | 200 to 1000 | 200 to 1000 | CC(C)c1c2c(c3c(c1CC(=O)N=S(N)(=O)c1sc(C(C)(C)O)cc1F)CCC3)COC2 (single isomer, unassigned) [Example 411, (R) or (S)-N-(amino(3-fluoro-5-(2-hydroxypropan-2-yl)thiophen-2-yl)(oxo)-λ^6-sulfaneylidene)-2-(4-isopropyl-3,6,7,8-tetrahydro-1H-indeno[4,5-c]furan-5-yl)acetamide] | –
– | – | – | – | CC(C)c1c2c(c3c(c1CC(=O)N=S(N)(=O)c1sc(C(C)(C)O)cc1F)CCC3)COC2 (single isomer, unassigned) [Example 412, (S) or (R)-N-(amino(3-fluoro-5-(2-hydroxypropan-2-yl)thiophen-2-yl)(oxo)-λ^6-sulfaneylidene)-2-(4-isopropyl-3,6,7,8-tetrahydro-1H-indeno[4,5-c]furan-5-yl)acetamide] | IC50 ([1]; Homo sapiens, THP-1, read-out: hTHP-1 IC50 in 2% FBS, average IC50, given as numeric bound): > 30000 nM; IC50 ([2]; Homo sapiens, THP-1, read-out: hTHP-1 IC50 in 10% FBS, average IC50, given as numeric bound): > 30000 nM
– | – | 1000 to 5000 | 200 to 1000 | CC(C)c1cccc(C(C)C)c1CC(=O)N=S(N)(=O)c1ccc(CCNC(=O)CCCc2ccccc2)cc1 (stereo not drawn) [Compound 409] | –
